Assay results as given in ChEMBL document CHEMBL1201862, “PubChem BioAssay data set” (2004).
Activity calls are given as the source filed them.

How the values were obtained:
[1] = target: Beta-2 adrenergic receptor (Homo sapiens, UniProt P07550); experiment: ADRB2 activation measured by internalization – cell-based, FAP fluorogen, flow cytometry, cherry pick 1, dose response (AID 588763); type: functional
[2] = target: T1, Insulin-degrading enzyme (Homo sapiens, UniProt P14735); experiment: recombinant IDE activation, cell-free – biochemical, fluorescence polarization, counter-screen for IDE activator project, dose response (AID 588681)
T1 sequence (P14735 whole entry): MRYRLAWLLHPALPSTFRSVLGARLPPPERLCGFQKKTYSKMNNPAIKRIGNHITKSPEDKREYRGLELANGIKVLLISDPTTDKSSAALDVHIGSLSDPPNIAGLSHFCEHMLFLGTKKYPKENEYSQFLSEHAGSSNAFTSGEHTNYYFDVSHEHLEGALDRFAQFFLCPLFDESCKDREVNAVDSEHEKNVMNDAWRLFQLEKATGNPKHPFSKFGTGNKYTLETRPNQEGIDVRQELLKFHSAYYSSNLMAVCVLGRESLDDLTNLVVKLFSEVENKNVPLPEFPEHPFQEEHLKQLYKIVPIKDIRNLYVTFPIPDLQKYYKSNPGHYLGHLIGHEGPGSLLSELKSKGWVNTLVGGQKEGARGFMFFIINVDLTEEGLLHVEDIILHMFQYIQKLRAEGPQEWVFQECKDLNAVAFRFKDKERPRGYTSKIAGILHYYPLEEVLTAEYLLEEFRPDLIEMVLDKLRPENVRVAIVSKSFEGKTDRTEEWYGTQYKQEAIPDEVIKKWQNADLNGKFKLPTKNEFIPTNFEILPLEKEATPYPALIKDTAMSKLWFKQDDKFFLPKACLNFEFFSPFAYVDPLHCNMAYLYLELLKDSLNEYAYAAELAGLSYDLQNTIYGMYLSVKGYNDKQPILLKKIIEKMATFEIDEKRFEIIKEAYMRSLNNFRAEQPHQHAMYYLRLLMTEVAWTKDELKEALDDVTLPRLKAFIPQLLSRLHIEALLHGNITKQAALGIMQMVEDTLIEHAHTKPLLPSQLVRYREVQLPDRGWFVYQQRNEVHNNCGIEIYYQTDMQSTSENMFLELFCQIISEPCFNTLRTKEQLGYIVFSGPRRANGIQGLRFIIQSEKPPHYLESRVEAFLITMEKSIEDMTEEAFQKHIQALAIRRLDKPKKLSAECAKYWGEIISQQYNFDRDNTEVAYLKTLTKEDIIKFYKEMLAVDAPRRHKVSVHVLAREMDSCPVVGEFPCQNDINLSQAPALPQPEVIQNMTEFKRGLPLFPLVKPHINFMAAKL

[3] = target: T1, Insulin-degrading enzyme; experiment: cellular IDE activation of Abeta substrate cleavage – fluorescence polarization, HEK cells, dose response (AID 588439); type: functional, cell-based
[4] = system: HEK293; experiment: membrane integrity loss in HEK cells – cell-based, fluorescence, cytotoxicity control for IDE activator project, dose response (AID 588440); type: functional; settings: Homo sapiens;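 also: cytotoxicity by LDH release measuring loss of membrane integrity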
[5] = system: HEK293; experiment: optical interference in Abeta FP readout, dose response, artefact control for IDE activator project, biochemical, fluorescence polarization (AID 588442); type: functional, cell-based; settings: Homo sapiens
[6] = system: HEK293; experiment: EBV LMP1 TES2 canonical NF-kB signalling blockers – cell-based, HEK293, luciferase, cherry-pick, dose response (AID 588343); type: functional; settings: Homo sapiens
[7] = reduction of Shn3 3'UTR-driven luciferase in osteoblasts – cell-based, Clone20 osteoblasts, firefly luciferase, cherry-picked, dose response (AID 624132); type: functional;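 also: firefly luciferase luminescence from reporter carrying the Shn3 3'UTR in osteoblasts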
[8] = loss of viability in HepG2 cells – cell-based, CellTiter-Glo, cherry-picked, cytotoxicity control for Shn3 inhibitor project, dose response (AID 624134); type: functional
[9] = non-specific 3'UTR reporter inhibition in Clone20-Shn3RL – cell-based, Renilla luciferase, cherry-picked, counter-screen for Shn3 inhibitor project, dose response (AID 624133); type: functional
[10] = system: BJ; experiment: BJ-TERT fibroblast viability loss – cell-based, RAS-independent, luminescence, dose response (AID 1933); type: functional; settings: Homo sapiens
[11] = system: BJ; experiment: cells; type: functional, cell-based; settings: Homo sapiens
[12] = target: T2, Luciferin 4-monooxygenase (Photinus pyralis, UniProt P08659); experiment: inhibition of purified Photinus pyralis luciferase – biochemical, luminescence, dose response (AID 1891)
T2 sequence (P08659 whole entry): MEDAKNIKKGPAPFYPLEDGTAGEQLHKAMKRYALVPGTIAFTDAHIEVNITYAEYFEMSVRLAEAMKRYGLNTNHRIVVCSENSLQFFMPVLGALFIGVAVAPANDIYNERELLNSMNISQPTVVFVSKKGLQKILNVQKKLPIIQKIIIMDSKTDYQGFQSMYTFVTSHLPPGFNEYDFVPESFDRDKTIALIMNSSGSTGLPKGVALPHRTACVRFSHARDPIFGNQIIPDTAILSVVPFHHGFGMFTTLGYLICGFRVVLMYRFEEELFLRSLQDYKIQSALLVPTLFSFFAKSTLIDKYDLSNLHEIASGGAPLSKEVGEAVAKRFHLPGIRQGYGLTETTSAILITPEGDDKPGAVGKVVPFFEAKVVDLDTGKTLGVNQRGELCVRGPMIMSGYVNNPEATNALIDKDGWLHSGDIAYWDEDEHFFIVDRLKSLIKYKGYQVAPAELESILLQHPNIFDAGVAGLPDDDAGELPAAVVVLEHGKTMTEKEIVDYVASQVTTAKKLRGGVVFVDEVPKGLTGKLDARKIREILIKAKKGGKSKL

[13] = Luminescence Cell-Based Dose Confirmation HTS to Identify Inhibitors of Platelet Dense Granule Release. [Related pubchem assays: 1663 (Primary HTS), 1678 (Summary of Project)]; type: functional
[14] = system: BJ; experiment: BJ-TERT-LT-ST fibroblast viability loss – cell-based, RAS-independent, luminescence, dose response (AID 1935); type: functional; settings: Homo sapiens;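 also: BJ fibroblasts immortalized with TERT plus LT and ST oncogenes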
[15] = DRD fibroblast viability loss – cell-based, non-viral oncogenic, luminescence, dose response (AID 1934); type: functional; settings: Homo sapiens
[16] = system: Jurkat; experiment: blockers of NF-kB activation in T cells – Jurkat, luciferase reporter, luminescence, B- and T-cell, dose response (AID 489004); type: functional, cell-based; settings: Homo sapiens;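 also: NF-kB luciferase reporter Jurkat cells stimulated with PMA plus ionomycin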
[17] = HEK-293T viability loss, compound-treated – cell-based, uHTS hits, cytotoxicity control for B/T-cell NF-kB inhibitor project, dose response (AID 489019); type: functional;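 also: IC50 reflects cytotoxicity as loss of cell viability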
[18] = target: Heat shock protein HSP 90-alpha (Homo sapiens, UniProt P07900); type: functional, organism-based
[19] = system: BJ; experiment: growth inhibition of engineered Ras-driven BJ cells – cell-based, alamar blue fluorescence, cherrypicked samples, dose response (AID 2631); type: functional; settings: Homo sapiens;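 also: confirmatory dose-response assay in RAS-dependent BJ fibroblasts engineered with TERT, LT and ST, with cytotoxicity read by fluorescence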
[20] = target: T2, Luciferin 4-monooxygenase; experiment: inhibition of purified Photinus pyralis luciferase – biochemical, dry powder samples, plate reader, dose response (AID 588451)
[21] = system: H4; experiment: inhibitors of control reporter signal in H4 cells – cell-based, plate reader, dry powder samples, counter-screen for prion reporter project, dose response (AID 540255); type: functional; settings: Homo sapiens
[22] = system: INS1; experiment: INS-1E survival protection against cytokine death – cell-based, luminescence, retest, dose response (AID 449756); type: functional; settings: Rattus norvegicus;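 also: cell death triggered by IL-1 beta plus TNF-alpha plus IFN-gamma mixture; protective hits raise ATP signal compared with cytokine alone wells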
[23] = system: H4; experiment: Amyloid Precursor 5' UTR neuroblastoma cell reporter line Measured in Cell-Based System Using Plate Reader - 2078-04_Inhibitor_Dose_DryPowder_Activity. [Related pubchem assays (depositor defined):AID488894]; type: functional; settings: Homo sapiens
[24] = system: H4; experiment: Inhibitors of Prion Protein 5' UTR mRNA Measured in Cell-Based System Using Plate Reader - 2078-01_Inhibitor_Dose_DryPowder_Activity. [Related pubchem assays (depositor defined):AID488894]; type: functional; settings: Homo sapiens
[25] = blockers of HIV-1 envelope-mediated cell-cell fusion – cherry-pick, dose response (AID 652057); type: functional, cell-based
[26] = viability loss in CEM21 cells – cell-based, CellTiter-Glo luminescence, cherry-picked, cytotoxicity control for viral fusion inhibitor project, dose response (AID 652042); type: functional;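 also: potency for signal decrease meaning cytotoxicity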
[27] = blockers of HIV-1 ZM109 envelope-driven cell-cell fusion – HeLa effector, CEM target cells, luciferase, cherry-pick, dose response (AID 652058); type: functional, cell-based;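 also: luciferase signal from HIV-1 Env mediated cell-cell fusion of effector and target cells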
[28] = off-target signal loss in HeLa-CEM21 co-culture – HeLa F-luc CTL cells, cherry-picked, counter-screen for HIV-1 Env fusion inhibitor project, dose response (AID 652040); type: functional, cell-based;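 also: potency for signal decrease marking cytotoxic or nonspecific inhibition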
[29] = HIV-1 AD8 envelope cell-cell fusion blockers – cherry-pick, dose response (AID 652062); type: functional, cell-based;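 also: luciferase signal from cell-cell fusion driven by HIV-1 clade B AD8 Env; potency is for inhibitors of fusion seen as a drop in luminescence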
[30] = A549 cell cytotoxicity, dose response, cytotoxicity control, plate reader, cherry-pick, antagonist series (AID 743412); type: functional, cell-based
[31] = toxicity toward HepG2 liver cells – cell-based, plate reader, cherry-pick, antagonist series, cytotoxicity control, dose response (AID 743416); type: functional
[32] = blockers of bursicon-stimulated LGR2 cAMP reporter – cell-based, HEK293, CRE-luciferase reporter, cherry pick, set 2, dose response (AID 743343); type: functional;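 also: transfected cells were stimulated with diluted bursicon conditioned medium after compound addition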
[33] = blockade of melanocortin 4 receptor signaling – cell-based, plate reader, cherry pick, counter-screen for LGR2 antagonist project, dose response (AID 743444); type: functional;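 also: transfected HEK 293 cells stimulated with alpha-MSH peptide; potency of inhibitors of the alpha-MSH evoked signal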
[34] = viability loss in HEK293 cells – cell-based, plate reader, cherry-picked samples, cytotoxicity control, dose response (AID 743446); type: functional
[35] = target: T3, High affinity choline transporter 1 (Homo sapiens, UniProt Q9GZV3); experiment: human choline transporter potentiators, potency – cell-based, 10-point CRC, membrane potential dye, dose response (AID 602376); type: functional
T3 sequence (Q9GZV3 whole entry): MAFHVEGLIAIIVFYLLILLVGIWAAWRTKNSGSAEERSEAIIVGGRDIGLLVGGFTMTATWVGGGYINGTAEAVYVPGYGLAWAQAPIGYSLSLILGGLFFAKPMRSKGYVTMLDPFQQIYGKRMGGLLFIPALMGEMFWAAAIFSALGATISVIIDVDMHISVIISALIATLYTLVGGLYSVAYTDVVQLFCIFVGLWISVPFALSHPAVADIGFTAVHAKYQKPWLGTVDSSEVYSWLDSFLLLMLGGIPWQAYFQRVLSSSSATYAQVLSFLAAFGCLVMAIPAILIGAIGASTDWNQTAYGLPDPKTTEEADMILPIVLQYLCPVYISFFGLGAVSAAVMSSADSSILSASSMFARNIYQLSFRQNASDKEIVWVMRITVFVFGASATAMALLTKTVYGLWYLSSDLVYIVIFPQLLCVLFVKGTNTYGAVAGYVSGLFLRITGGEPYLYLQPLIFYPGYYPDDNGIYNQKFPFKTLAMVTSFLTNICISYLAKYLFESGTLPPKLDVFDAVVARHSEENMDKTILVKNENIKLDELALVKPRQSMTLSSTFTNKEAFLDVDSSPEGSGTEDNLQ

Chain of Beta-2 adrenergic receptor (P07550 whole entry): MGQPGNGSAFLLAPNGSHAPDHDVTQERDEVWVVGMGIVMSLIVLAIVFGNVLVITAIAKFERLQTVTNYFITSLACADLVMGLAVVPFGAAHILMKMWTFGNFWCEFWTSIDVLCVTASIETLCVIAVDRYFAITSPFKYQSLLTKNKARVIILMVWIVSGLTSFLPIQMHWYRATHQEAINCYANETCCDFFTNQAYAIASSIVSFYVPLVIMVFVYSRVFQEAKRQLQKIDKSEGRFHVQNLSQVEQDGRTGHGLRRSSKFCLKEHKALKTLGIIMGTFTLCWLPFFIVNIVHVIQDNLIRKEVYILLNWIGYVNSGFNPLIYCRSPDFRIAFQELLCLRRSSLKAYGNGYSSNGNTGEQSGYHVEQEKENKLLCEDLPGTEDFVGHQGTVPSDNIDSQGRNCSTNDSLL

Structure (SMILES): Cc1ccc(N(C)S(=O)(=O)c2cc(-c3cnc(C4CC4)o3)ccc2C)cc1
- EC50 [1]: 2460 nM (active)

Structure (SMILES): O=C(COc1cccc2cccnc12)Nc1cccc(S(=O)(=O)N2CCCC2)c1
- EC50 [2]: > 54700 nM (inactive)
- EC50 [3]: > 54700 nM (inactive)
- IC50 [4]: > 89200 nM (inactive)
- EC50 [5]: > 55900 nM (inactive)

Structure (SMILES): Cc1ccccc1C(=O)NC(=S)Nc1ccc(N2CCN(C(=O)c3ccccc3)CC2)cc1
- AC50 [6]: 1700 nM (active)
- AC50 [7]: 1880 nM (active)
- AC50 [8]: 51500 nM (active)
- AC50 [9]: 7720 nM (active)

Structure (SMILES): COc1cc(SC)ccc1C(=O)Nc1nc2ccccc2[nH]1
- EC50 [10]: 1020 nM (active)
- EC50 [11]: 1260 nM (active)
- EC50 [12]: 152 nM (active)
- EC50 [13]: 240 nM (active)
- EC50 [14]: 2260 nM (active)
- EC50 [15]: 930 nM (active)
- IC50 [16]: < 160 nM (active)
- IC50 [17]: > 80000 nM (inactive)
- AC50 [18]: 1420 nM (active)
- EC50 [19]: > 133000 nM (inactive)
- AC50 [20]: 9.03 nM (active)
- AC50 [21]: 885 nM (active)
- AC50 [22]: 1120 nM (active)
- AC50 [23]: < 0.015 nM (active)
- AC50 [24]: 28 nM (active)
- AC50 [7]: < 260 nM (active)
- AC50 [8]: 28500 nM (active)
- AC50 [25]: 260 nM (active)
- AC50 [26]: 1280 nM (active)
- AC50 [27]: 1980 nM (active)
- AC50 [28]: 513 nM (active)
- AC50 [29]: 319 nM (active)
- AC50 [30]: 2520 nM (active)
- AC50 [31]: 14500 nM (active)
- AC50 [32]: < 68 nM (active)
- AC50 [33]: < 68 nM (active)
- AC50 [34]: 3350 nM (active)

Structure (SMILES): O=C(c1cccc(C(F)(F)F)c1)C1CCCN(Cc2cccn2-c2ncccn2)C1 (configuration not stated)
- EC50 [35]: 6690 nM (active)
